These results are taken from patent US6087355A, “Cephalosporin antibiotics” (Microcide Pharmaceuticals, Inc., priority 1996, dated 2000).

Counter-ions that a name gives are not always drawn. Some results are limits rather than exact numbers.

Test [1] concerns E. coli ATCC 25992. The experiment in a line: In vitro MIC, agar dilution. The format is cell-based. To be noted: Escherichia coli, ATCC25992, read-out: minimum inhibitory concentration (MIC). The method, boiled down: (§1)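 Agar dilution on Mueller-Hinton plates: spots of roughly 10^4 cfu of log-phase bacteria were placed on agar containing serial two-fold compound dilutions, from a 128 μg/mL top working level to ≤0.25 μg/mL, each in duplicate. After 16-20 hours at 35-36° C, the lowest growth-inhibiting concentration was taken as the MIC.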
In general terms: Agar dilution tests growth on a series of plates holding different concentrations.

The test system of test [2] is E. faecalis ATCC 29212. The experiment in a line: In vitro MIC, agar dilution. The format is cell-based. The conditions noted are these: Enterococcus faecalis, ATCC29212, read-out: minimum inhibitory concentration (MIC). Put shortly:
as §1

The test system of test [3] is E. faecalis VanB(Van^R). The experiment in a line: In vitro MIC, agar dilution. The format is cell-based. To be noted: Enterococcus faecalis, read-out: minimum inhibitory concentration (MIC). Put shortly:
as §1

The subject of test [4] is E. faecium A491(Amp^R). The experiment in a line: In vitro MIC, agar dilution. In kind it is cell-based. The conditions noted are these: Enterococcus faecium, read-out: minimum inhibitory concentration (MIC). The method, boiled down: as §1
The test system of test [5] is E. faecium ATCC 35667. The experiment in a line: In vitro MIC, agar dilution. The format is cell-based. The conditions noted are these: Enterococcus faecium, ATCC35667, read-out: minimum inhibitory concentration (MIC). Put shortly:
as §1

The subject of test [6] is E. faecium VanA(Van^R). The experiment in a line: In vitro MIC, agar dilution. The format is cell-based. To be noted: Enterococcus faecium, read-out: minimum inhibitory concentration (MIC). The method, boiled down:
as §1

For test [7], the system named is P. aeruginosa ATCC 27853. The experiment in a line: In vitro MIC, agar dilution. To be noted: Pseudomonas aeruginosa, ATCC27853, read-out: minimum inhibitory concentration (MIC). The format is cell-based. The method, boiled down:
as §1

For test [8], the system named is S. aureus 76(Meth^R)(lac^+). The experiment in a line: In vitro MIC, agar dilution. In kind it is cell-based. To be noted: Staphylococcus aureus, read-out: minimum inhibitory concentration (MIC). Put shortly:
as §1

The subject of test [9] is S. aureus ATCC 13709(Meth^S). The experiment in a line: In vitro MIC, agar dilution. The format is cell-based. To be noted: Staphylococcus aureus, ATCC13709, S. aureus ATCC 13709(Meth^S); read-out: minimum inhibitory concentration (MIC). The method, boiled down:
as §1

For test [10], the system named is S. aureus ATCC 29213. The experiment in a line: In vitro MIC, agar dilution. In kind it is cell-based. To be noted: Staphylococcus aureus, ATCC29213, read-out: minimum inhibitory concentration (MIC). Put shortly:
as §1

Test [11] concerns S. aureus ATCC 33593(Meth^R). The experiment in a line: In vitro MIC, agar dilution. To be noted: Staphylococcus aureus, ATCC33593, read-out: minimum inhibitory concentration (MIC). In kind it is cell-based. The method, boiled down:
as §1

Test [12] has as its system S. aureus PC1(Meth^S)(lac^+). The experiment in a line: In vitro MIC, agar dilution. To be noted: Staphylococcus aureus, read-out: minimum inhibitory concentration (MIC). The format is cell-based. Put shortly: as §1
For test [13], the system named is S. aureus Spain #356(Meth^R). The experiment in a line: In vitro MIC, agar dilution. In kind it is cell-based. The conditions noted are these: Staphylococcus aureus, read-out: minimum inhibitory concentration (MIC). Put shortly: as §1
Test [14] has as its system S. haemolyticus 05(Meth^R). The experiment in a line: In vitro MIC, agar dilution. The format is cell-based. To be noted: Staphylococcus haemolyticus, read-out: minimum inhibitory concentration (MIC). The method, boiled down: as §1
The test system of test [15] is S. aureus Col(Meth^R)(lac^-). The experiment in a line: In vitro MIC, agar dilution. The format is cell-based. The conditions noted are these: Staphylococcus aureus, read-out: minimum inhibitory concentration (MIC). Put shortly: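 Two-fold dilutions (128 to ≤0.25 μg/mL, in duplicate) were poured into Mueller-Hinton agar. Log-phase broth cultures were spot-inoculated at about 10^4 cfu per spot and incubated 35-36°C for 16-20 hours; the MIC was the lowest concentration inhibiting growth. Col is a high-level PBP2a producer; Col 8A is its isogenic PBP2a-lacking partner.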

The test system of test [16] is S. aureus strain ATCC 13709 (methicillin-susceptible). The experiment in a line: Murine model for lethal bacteremic peritonitis. The format is in vivo, female Swiss-Webster mice. To be noted: Staphylococcus aureus, ATCC13709, SC, 72 h; for responders at 0.3125 mg/kg / responders at 0.625 mg/kg / responders at 2.5 mg/kg / responders at 5 mg/kg: read-out: Survivors; for responders at 1.25 mg/kg: read-out: Survivors (converted); for ED50: two equal doses, IP challenge, read-out: ED50. As to the method:
Groups of 5 female Swiss-Webster mice (Simonsen, Gilroy, Calif.) each are challenged by the intraperitoneal (IP) route with tenfold increments of a bacterial inoculum. This permits calculation of the mean lethal dose (LD50) and the LD100. For preliminary evaluation of a new antibiotic, mice are challenged IP with an LD100 titer of bacteria. In two equal doses administered at the time of bacterial challenge and 2 hours later, groups of 10 mice each are treated subcutaneously with two-fold increments of the test drug and an antibiotic of known efficacy in mice and humans (i.e., positive control). Mice are observed for 72 h. Those alive at 72 h are considered long term survivors. The total drug dose in mg/kg that protects 50% of mice in a group from death is termed the mean protective dose (PD50). PD50 s are similarly determined for several pathogens. The quantitative endpoints for the new drug are then compared with those obtained with reference antibiotics.
Six ten-fold dilutions of inoculum suspended in 0.5 mL of sterilized 7% hog gastric mucin (Sigma) are injected IP in groups of 5 mice each. A control group of 5 mice receive mucin alone. Mice are observed for 72 h. Those alive at 72 h are considered long term survivors. The mean lethal dose (LD50) and 100% lethal dose (LD100) are determined by the probit test.
For antibiotic efficacy studies, mice are challenged IP with bacterial titers that will afford an LD100 for the test strain. In two equal doses administered at the time of bacterial challenge and 2 hours later, groups of 10 mice each are treated by the subcutaneous route (SC) with twofold increments of the test antibiotic; another group is treated similarly with a reference antibiotic of known efficacy in animals and man. Drug doses can range from 0.01 to 512 mg/kg. If the drug is poorly soluble, Tween 20 or propylene glycol will be employed to solubilize the drug. Animals are observed for 72 h. The 50% protective dose (PD50) is calculated in mg/kg by the probit method. The PD50 is the same as the 50% effective dose (ED50) and the 50% curative dose (CD50). Samples of blood from the hearts of all animals that die and from half the mice that survive are cultured on brain-heart infusion agar. Animals that received a protective dosage of the test drug will be alive at 72 h, although they may appear moderately ill to very ill during the observation period. […] Most of these mice will die within 6 to 48 h. Those alive at 72 h will be considered long term survivors.
(Compound numbers correspond to those in MIC tables; data reported for challenge with methicillin-susceptible S. aureus strain ATCC 13709.)

The ED50 is the midpoint of the dose-response relation. Turning to `CNCCNCCSCc1cnccc1SC1=C(C(=O)O)N2C(=O)[C@@H](NC(=O)/C(=N\O)c3nc(N)sc3Cl)[C@H]2SC1` [Cmpd 57, (7R)-7-[(Z)-2-(2-amino-5-chlorothiazol-4-yl)-2-(hydroxyimino)acetamido]-3-(3-(N-methylaminoethylaminoethylthiomethyl)pyrid-4-ylthio)-3-cephem-4-carboxylate, trifluoroacetic acid salt], the MIC in test [1] amounted to 4 µg/mL; in [2], 0.13 µg/mL; in test [3], 4 µg/mL; in test [4], 16 µg/mL; in test [5] it was 1 µg/mL; in [6], 2 µg/mL. Besides, the MIC was > 32 µg/mL in test [7]; 4 µg/mL in test [8]; 0.5 µg/mL in test [9]; 1 µg/mL in test [10]; 4 µg/mL in test [11]; 1 µg/mL in [12]. Besides, the MIC came out at 4 µg/mL in test [13], 8 µg/mL in test [14] and 4 µg/mL in test [15]. Besides, the responders at 0.3125 mg/kg in test [16] came to 40%. The responders at 0.625 mg/kg in test [16] stood at 40%. The responders at 1.25 mg/kg in test [16] is 40%. Besides, the responders at 2.5 mg/kg in [16] came to 50%. In [16], the responders at 5 mg/kg was 90%. In addition, the ED50 in test [16] came out at 1.08 mg/kg.
As for `CNCCSCc1cnccc1SC1=C(C(=O)O)N2C(=O)[C@@H](NC(=O)/C(=N\O)c3csc(N)n3)[C@H]2SC1` [Cmpd 15, (7R)-7-[(Z)-2-(aminothiazol-4-yl)-2-(hydroxyimino)acetamido]-3-(3-methylaminoethylthiomethylpyrid-4-ylthio)-3-cephem-4-carboxylate, trifluoroacetic acid salt], the MIC in test [1] was 8 µg/mL; in test [2] it was 2 µg/mL; in [3], 0.5 µg/mL; in test [4] it was > 32 µg/mL; in test [5], 2 µg/mL; in [6], 4 µg/mL. In addition, the MIC is > 32 µg/mL in test [7]; 4 µg/mL in [8]; 0.5 µg/mL in test [9]; 1 µg/mL in test [10]; 4 µg/mL in test [11]; 1 µg/mL in test [12]. For the same molecule, the MIC is 4 µg/mL in test [13], 8 µg/mL in [14] and 4 µg/mL in test [15]. Moreover, the responders at 0.3125 mg/kg in [16] was 20%. Moreover, the responders at 0.625 mg/kg in test [16] is 0%. Besides, in test [16], the responders at 1.25 mg/kg is 20%. Besides, the responders at 2.5 mg/kg in [16] came out at 50%. For the same molecule, the responders at 5 mg/kg in test [16] amounted to 50%. For the same molecule, the ED50 in test [16] was determined as 4.63 mg/kg.
Regarding `N=C(N)SCc1nnsc1SC1=C(C(=O)O)N2C(=O)[C@@H](NC(=O)/C(=N\O)c3csc(N)n3)[C@H]2SC1` [Cmpd 4, (7R)-7-[(Z)-2-(aminothiazol-4-yl)-2-(hydroxyimino)acetamido]-3-(4-isothioureidomethyl-1,2,3-thiadiazol-5-ylthio)-3-cephem-4-carboxylate, trifluoroacetic acid salt], the MIC in test [1] is 4 µg/mL; in [2], 0.5 µg/mL; in test [3] it was 4 µg/mL; in test [4], > 32 µg/mL; in [5], 2 µg/mL; in test [6], 4 µg/mL. In addition, the MIC in [7] is > 32 µg/mL; in test [8], 8 µg/mL; in test [9], 0.25 µg/mL; in [10] it was 0.25 µg/mL; in test [11], 4 µg/mL; in test [12] it was 0.25 µg/mL. Also, the MIC in [13], in test [14] and in test [15] was 8 µg/mL throughout.
For `NCCSCc1cnccc1SC1=C(C(=O)O)N2C(=O)[C@@H](NC(=O)/C(=N\OC3CCCC3)c3csc(N)n3)[C@H]2SC1` [Cmpd 13, (7R)-7-[(Z)-2-(aminothiazol-4-yl)-2-(cyclopentyloxyimino)acetamido]-3-(3-aminoethylthiomethylpyrid-4-ylthio)-3-cephem-4-carboxylate, trifluoroacetic acid salt], the MIC in test [1] was 8 µg/mL; in [2], 1 µg/mL; in [3], 2 µg/mL; in test [4], > 32 µg/mL; in [5], 4 µg/mL; in test [6], 8 µg/mL. In addition, the MIC in test [7] is > 32 µg/mL; in test [8] it was 8 µg/mL; in test [9] it was 2 µg/mL; in test [10] it was 2 µg/mL; in test [11] it was 8 µg/mL; in test [12] it was 2 µg/mL. The MIC in test [13] amounted to 8 µg/mL; in [14] it was 8 µg/mL; in test [15], 4 µg/mL.
`NCC#CCc1cnccc1SC1=C(C(=O)O)N2C(=O)[C@@H](NC(=O)/C(=N\O)c3nc(N)sc3Cl)[C@H]2SC1` [Cmpd 48, (7R)-7-[(Z)-2-(2-amino-5-chlorothiazol-4-yl)-2-(hydroxyimino)acetamido]-3-(3-(4-amino-2-butyn-1-yl)pyrid-4-ylthio)-3-cephem-4-carboxylate, trifluoroacetic acid salt]: the MIC in [1] was 4 µg/mL; in test [2] it was 0.25 µg/mL; in [3], 0.5 µg/mL; in [4] it was 32 µg/mL; in test [5] it was 1 µg/mL; in [6] it was 4 µg/mL. For the same molecule, the MIC is > 32 µg/mL in test [7]; 8 µg/mL in [8]; 0.25 µg/mL in test [9]; 0.5 µg/mL in test [10]; 4 µg/mL in [11]; 0.5 µg/mL in [12]. Moreover, the MIC in [13] is 8 µg/mL; in test [14], 16 µg/mL; in test [15], 4 µg/mL.
